# Measured values reported in the supplement of paper PMC10331698.
# ± gives the standard deviation of the averaged measurements.
# Experiments:
# Experiment in all cases: level (log10 ratio to DMSO vehicle control); higher = higher biomarker level / cell amount than vehicle control
# [1] = compound: O=S(=O)(Cl)C(F)(F)C(F)(F)C(F)(F)C(F)(F)C(F)(F)C(F)(F)C(F)(F)C(F)(F)F [Perfluoro-1-octanesulfonyl chloride]; conditions: in DMSO
# Method: (§1)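 BioMAP Diversity Plus panel of 12 human primary cell co-culture systems (3C, 4H, LPS, SAg, BT, BF4T, BE3C, CASM3C, HDF3CGF, KF3CT, MyoF, Mphg). Compounds were added 1 h before stimulation and left for 24 h (MyoF 48 h; BT 72 h for soluble read-outs or 6 d for IgG). Biomarkers were read by ELISA, cytotoxicity by SRB, PBMC viability and proliferation by Alamar Blue. Each well value was divided by the mean of 8 DMSO control wells on the same plate and log10 transformed; duplicate blinded samples were tested at 4 concentrations.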
# [2] = compound: O=C(O)C(F)(F)C(F)(F)C(F)(F)C(F)(F)C(F)(F)C(F)(F)C(F)(F)C(F)(F)C(F)(F)C(F)F [11-H-Perfluoroundecanoic acid]; conditions: in DMSO
# Method: as §1
# [3] = compound: O=C(O)C=CC(F)(C(F)(F)F)C(F)(F)F [3-(Perfluoroisopropyl)-2-propenoic acid]; conditions: in DMSO
# Method: as §1
# [4] = compound: FC(F)(F)C(F)(F)C(F)(F)CC1CO1 [1H,1H-Heptafluorobutyl epoxide]; conditions: in DMSO
# Method: as §1
# [5] = compound: O=S(=O)(F)C(F)(F)C(F)(F)C(F)(F)C(F)(F)C(F)(F)C(F)(F)C(F)(F)C(F)(F)F [Perfluorooctanesulfonyl fluoride]; conditions: in DMSO
# Method: as §1
# [6] = compound: FC(F)(F)C(F)(F)C(F)(F)C(F)(F)C(F)(F)C(F)(F)C(F)(F)I [1-Iodopentadecafluoroheptane]; conditions: in DMSO
# Method: as §1
# [7] = compound: NC(=O)C(F)(F)C(F)(F)C(F)(F)C(F)F; conditions: in DMSO
# Method: as §1
# [8] = compound: FC(F)(F)C(F)(F)C(F)(F)C(F)(F)C(F)(F)C(F)(F)CC1CO1 [3-(Perfluorohexyl)-1,2-epoxypropane]; conditions: in DMSO
# Method: as §1
# [9] = compound: COC(=O)C(F)(F)C(F)(F)OC(F)(C(F)(F)F)C(F)(F)OC(F)=C(F)F [Methyl perfluoro(3-(1-ethenyloxypropan-2-yloxy)propanoate)]; conditions: in DMSO
# Method: as §1
# [10] = compound: NC(=O)C(F)(F)C(F)(F)C(F)(F)C(F)(F)C(N)=O [Octafluoroadipamide]; conditions: in DMSO
# Method: as §1
# [11] = compound: C=CC(=O)OCC(F)(F)C(F)(F)C(F)(F)COC(=O)C=C [1H,1H,5H,5H-Perfluoro-1,5-pentanediol diacrylate]; conditions: 6700 nM; in DMSO
# Method: as §1
# [12] = compound: FC(F)(F)C(F)(F)CNCC(F)(F)C(F)(F)F [Bis(1H,1H-perfluoropropyl)amine]; conditions: in DMSO
# Method: as §1
# [13] = compound: NS(=O)(=O)C(F)(F)C(F)(F)C(F)(F)C(F)(F)C(F)(F)C(F)(F)F [Perfluorohexanesulfonamide]; conditions: in DMSO
# Method: as §1
# [14] = compound: FC(F)(F)C(F)(F)C(F)(F)CI [Heptafluorobutyl iodide]; conditions: in DMSO
# Method: as §1
# [15] = compound: O=S(=O)(O)C(F)(F)C(F)(F)C(F)(F)C(F)(F)C(F)(F)C(F)(F)C(F)(F)C(F)(F)C(F)(F)C(F)(F)F [Sodium perfluorodecanesulfonate]; conditions: in DMSO
# Method: as §1
# [16] = compound: C=C(C)C(=O)OCCC(F)(F)C(F)(F)C(F)(F)C(F)(F)C(F)(F)C(F)(F)F [6:2 Fluorotelomer methacrylate]; conditions: in DMSO
# Method: as §1
# [17] = compound: O=S(=O)(O)CCC(F)(F)C(F)(F)C(F)(F)C(F)(F)C(F)(F)C(F)(F)F [6:2 Fluorotelomer sulfonic acid]; conditions: in DMSO
# Method: as §1
# [18] = compound: NC(=O)C(F)(F)C(F)(F)C(F)(F)C(F)(F)F [Nonafluoropentanamide]; conditions: in DMSO
# Method: as §1
# [19] = compound: OCC(F)(F)C(F)(F)C(F)(F)CO [Hexafluoroamylene glycol]; conditions: in DMSO
# Method: as §1
test system,measurement,setting,value
HDF3CGF:TIMP-2,level (log10),[1]; 6700 nM,-0.002 ± 0.048
same,level (log10),[1]; 20000 nM,-0.0185 ± 0.013
same,level (log10),[1]; 60000 nM,-0.0205 ± 0.0021
same,level (log10),[2]; 6700 nM,-0.0675 ± 0.046
same,level (log10),[2]; 20000 nM,-0.103 ± 0.025
same,level (log10),[3]; 6700 nM,-0.0105 ± 0.0021
same,level (log10),[3]; 20000 nM,-0.0045 ± 0.011
same,level (log10),[3]; 60000 nM,-0.0115 ± 0.012
same,level (log10),[4]; 6700 nM,-0.0395 ± 0.16
same,level (log10),[4]; 20000 nM,-0.061 ± 0.11
same,level (log10),[4]; 60000 nM,-0.038 ± 0.1
same,level (log10),[5]; 6700 nM,-0.0005 ± 0.011
same,level (log10),[5]; 20000 nM,0.0185 ± 0.012
same,level (log10),[5]; 60000 nM,-0.0085 ± 0.042
same,level (log10),[6]; 6700 nM,0.015 ± 0.0057
same,level (log10),[6]; 20000 nM,0.0035 ± 0.0035
same,level (log10),[7]; 6700 nM,0.015 ± 0.025
same,level (log10),[7]; 20000 nM,0.027 ± 0.033
same,level (log10),[7]; 60000 nM,0.003 ± 0.0028
same,level (log10),[8]; 6700 nM,0.0235 ± 0.012
same,level (log10),[8]; 20000 nM,0.0065 ± 0.00071
same,level (log10),[8]; 60000 nM,-0.006 ± 0.02
same,level (log10),[9]; 6700 nM,-0.043 ± 0.0028
same,level (log10),[9]; 20000 nM,-0.051 ± 0.028
same,level (log10),[10]; 6700 nM,-0.0695 ± 0.13
same,level (log10),[10]; 20000 nM,-0.035 ± 0.061
same,level (log10),[10]; 60000 nM,-0.002 ± 0.013
same,level (log10),[11],0.0805 ± 0.016
same,level (log10),[12]; 6700 nM,-0.005 ± 0.017
same,level (log10),[12]; 20000 nM,-0.0085 ± 0.033
same,level (log10),[12]; 60000 nM,0.022 ± 0.0014
same,level (log10),[13]; 6700 nM,0.012 ± 0.023
same,level (log10),[13]; 20000 nM,0.0005 ± 0.0021
same,level (log10),[13]; 60000 nM,-0.157 ± 0.0057
same,level (log10),[14]; 6700 nM,-0.033 ± 0.0042
same,level (log10),[14]; 20000 nM,-0.044 ± 0.0071
same,level (log10),[14]; 60000 nM,-0.013 ± 0.051
same,level (log10),[15]; 1500 nM,-0.026 ± 0.11
same,level (log10),[15]; 4400 nM,0.0395 ± 0.0035
same,level (log10),[15]; 13000 nM,0.005 ± 0.052
same,level (log10),[15]; 40000 nM,-0.085 ± 0.089
same,level (log10),[16]; 6700 nM,0.0065 ± 0.087
same,level (log10),[16]; 20000 nM,0.018 ± 0.085
same,level (log10),[16]; 60000 nM,0.022 ± 0.082
same,level (log10),[17]; 6700 nM,-0.021 ± 0.0099
same,level (log10),[17]; 20000 nM,-0.0205 ± 0.032
same,level (log10),[17]; 60000 nM,0.0245 ± 0.029
same,level (log10),[18]; 6700 nM,-0.0315 ± 0.016
same,level (log10),[18]; 20000 nM,0.0165 ± 0.06
same,level (log10),[18]; 60000 nM,0.0025 ± 0.091
same,level (log10),[19]; 6700 nM,-0.0205 ± 0.029
same,level (log10),[19]; 20000 nM,-0.024 ± 0.014
same,level (log10),[19]; 60000 nM,0.0025 ± 0.032
KF3CT:CXCL9/MIG,level (log10),[1]; 6700 nM,-0.0045 ± 0.005
same,level (log10),[1]; 20000 nM,-0.002 ± 0.0057
same,level (log10),[1]; 60000 nM,0.005 ± 0.0042
same,level (log10),[2]; 6700 nM,-0.006 ± 0.0042
same,level (log10),[2]; 20000 nM,-0.028 ± 0.0028
same,level (log10),[3]; 6700 nM,-0.0005 ± 0.012
same,level (log10),[3]; 20000 nM,0.0005 ± 0.011
same,level (log10),[3]; 60000 nM,0 ± 0.0028
same,level (log10),[4]; 6700 nM,-0.0095 ± 0.00071
same,level (log10),[4]; 20000 nM,-0.002 ± 0.025
same,level (log10),[4]; 60000 nM,-0.0085 ± 0.012
same,level (log10),[5]; 6700 nM,0.007 ± 0.0057
same,level (log10),[5]; 20000 nM,-0.007 ± 0.0085
same,level (log10),[5]; 60000 nM,0.006 ± 0.0085
same,level (log10),[6]; 6700 nM,0.0115 ± 0.022
same,level (log10),[6]; 20000 nM,0.012 ± 0.014
same,level (log10),[7]; 6700 nM,0.019 ± 0.018
same,level (log10),[7]; 20000 nM,0.006 ± 0.02
same,level (log10),[7]; 60000 nM,0.0145 ± 0.0078
same,level (log10),[8]; 6700 nM,0
same,level (log10),[8]; 20000 nM,0.01 ± 0.0057
same,level (log10),[8]; 60000 nM,0.0115 ± 0.0021
same,level (log10),[9]; 6700 nM,-0.013 ± 0.013
same,level (log10),[9]; 20000 nM,-0.0105 ± 0.025
same,level (log10),[10]; 6700 nM,0.0075 ± 0.0064
same,level (log10),[10]; 20000 nM,0.0035 ± 0.005
same,level (log10),[10]; 60000 nM,0.0075 ± 0.005
same,level (log10),[11],-0.0275 ± 0.013
same,level (log10),[12]; 6700 nM,0.0085 ± 0.016
same,level (log10),[12]; 20000 nM,-0.001 ± 0.0028
same,level (log10),[12]; 60000 nM,0.007 ± 0.011
same,level (log10),[13]; 6700 nM,0.0005 ± 0.0035
same,level (log10),[13]; 20000 nM,-0.0075 ± 0.016
same,level (log10),[13]; 60000 nM,-0.008 ± 0.0057
same,level (log10),[14]; 6700 nM,-0.005 ± 0.0014
same,level (log10),[14]; 20000 nM,-0.008 ± 0.013
same,level (log10),[14]; 60000 nM,-0.003 ± 0.0071
same,level (log10),[15]; 1500 nM,0.0005 ± 0.0064
same,level (log10),[15]; 4400 nM,-0.0045 ± 0.0021
same,level (log10),[15]; 13000 nM,0.0015 ± 0.0092
same,level (log10),[15]; 40000 nM,0 ± 0.0042
same,level (log10),[16]; 6700 nM,0.012 ± 0.0042
same,level (log10),[16]; 20000 nM,0.01 ± 0.0028
same,level (log10),[16]; 60000 nM,0.01 ± 0.02
same,level (log10),[17]; 6700 nM,0.0005 ± 0.013
same,level (log10),[17]; 20000 nM,-0.0025 ± 0.022
same,level (log10),[17]; 60000 nM,0.0005 ± 0.013
same,level (log10),[18]; 6700 nM,0.006 ± 0.0042
same,level (log10),[18]; 20000 nM,0.011 ± 0.0085
same,level (log10),[18]; 60000 nM,0.007 ± 0.0099
same,level (log10),[19]; 6700 nM,0.0155 ± 0.00071
same,level (log10),[19]; 20000 nM,-0.003 ± 0.0014
same,level (log10),[19]; 60000 nM,0.014 ± 0.011
